Reference: patent publication US8637510B2, “Morpholinothiazoles as alpha 7 positive allosteric modulators” (Janssen Pharmaceutica NV, priority 2009, dated 2014)

Target: T1, human alpha 7-wt nAChR (Homo sapiens, UniProt P36544)
T1 construct: expressed in transfected cells
Test: Ca2+ flux imaging (FDSS) (Protocol B)
Format: cell-based
Conditions: for Emax: efficacy of 100 μM choline defined as 100% in the absence of a PAM, read-out: a7-PAM-G_[33]_Eff_Curve_FI % Efficacy; for EC50: potentiation of 100 μM choline, compounds 0.01 μM to 30 μM, read-out: a7-PAM-G_[33]_pEC50 pEC50 (converted)
Method: Ca^2+ Flux Imaging (FDSS) (Protocol B)
• Hanks buffered saline solution (HBSS, Invitrogen, Belgium), supplemented with 10 mM HEPES (Invitrogen, Belgium), CaCl2 to a final concentration of 5 mM, 0.1% Bovine serum albumin (Sigma-Aldrich NV, Belgium). b) Calcium-Sensitive Dye—Fluo-4AM • Fluo-4AM (Molecular Probes, USA) was dissolved in DMSO containing 10% Pluronic acid (Molecular Probes, USA) to give a stock solution which was diluted in assay buffer supplemented with 5 mM probenicid (Sigma, Aldrich NV, Belgium) to give a final concentration of 2 μM. c) 384-Well Plates • Black-sided, transparent bottomed 384 well plates coated with poly-D-lysine, PDL pre-coated (Corning, Incorporated, USA) d) Calcium Flux Measurement • A Functional drug screening system (FDSS, Hamamatsu) was used to measure intracellular free-calcium flux signals. Method
Monolayers of human alpha 7-wt nAChR-expressing cells were grown in black-sided, transparent bottomed 384 well plates coated with PDL for 24 hours prior to loading with a fluorescent calcium indicator, fluo-4AM for up to 120 minutes.
PAM activity was detected in real time by applying the compounds to be tested to the loaded cells along with an alpha 7 nicotinic receptor agonist during constant monitoring of cellular fluorescence in a FDSS. Compounds giving peak fluorescent responses greater than the response due to agonist alone, were considered to be alpha 7 nAChR PAMs. The alpha 7 nicotinic receptor agonist was choline, applied at a sub-maximal concentration of 100 μM. In a further setting of the present invention the compounds were applied prior to the alpha 7 nicotinic receptor agonist, in a particular 10 minutes prior to the agonist.
A control response to choline was calculated on each plate from the difference in peak in fluorescence in wells receiving either choline or assay buffer alone. Compounds of the present invention were tested at a concentration range from 0.01 μM to 30 μM. Compounds were considered to have an interesting activity when they potentiated the choline signal at least with 200% when tested at a concentration of 30 μM (the efficacy of 100 μM choline was defined as 100% in the absence of a PAM). An EC50 (or pEC50) was determined as a concentration relating to half the maximal effect, when a clear sigmoidal curve with top plateau was obtained.

T1 sequence (P36544 23-502): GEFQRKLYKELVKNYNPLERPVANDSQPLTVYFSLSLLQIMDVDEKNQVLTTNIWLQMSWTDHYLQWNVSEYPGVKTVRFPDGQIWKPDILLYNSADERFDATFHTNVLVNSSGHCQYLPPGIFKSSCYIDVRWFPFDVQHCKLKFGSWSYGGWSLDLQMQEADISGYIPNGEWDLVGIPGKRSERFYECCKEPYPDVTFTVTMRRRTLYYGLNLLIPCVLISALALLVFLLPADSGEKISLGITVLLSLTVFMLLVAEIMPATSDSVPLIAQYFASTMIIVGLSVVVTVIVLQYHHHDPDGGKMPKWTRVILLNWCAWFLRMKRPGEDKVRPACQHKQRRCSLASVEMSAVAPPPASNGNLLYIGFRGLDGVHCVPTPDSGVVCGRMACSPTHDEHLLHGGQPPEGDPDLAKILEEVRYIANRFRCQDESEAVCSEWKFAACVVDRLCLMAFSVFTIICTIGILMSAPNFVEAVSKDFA

Row | Emax [%] | EC50 [µM] | SMILES
1 | 479 | 0.759 | Cc1cc(-c2sc(N3C[C@@H](C)O[C@@H](C)C3)nc2CNC(=O)c2conc2C)ccn1 [Compound 86, N-[[2-[(2R,6S)-2,6-dimethyl-4-morpholinyl]-5-(2-methyl-4-pyridinyl)-4-thiazolyl]methyl]-3-methyl-4-isoxazolecarboxamide]
2 | 445 | 0.407 | Cc1cc(-c2sc(N3C[C@@H](C)O[C@@H](C)C3)nc2CNC(=O)c2cccc(Cl)c2)ccn1 [Compound 91, 3-chloro-N-[[2-[(2R,6S)-2,6-dimethyl-4-morpholinyl]-5-(2-methyl-4-pyridinyl)-4-thiazolyl]methyl]-benzamide]
3 | 523 | 0.661 | Cc1cc(-c2sc(N3C[C@@H](C)O[C@@H](C)C3)nc2CNC(=O)c2ccccc2F)ccn1 [Compound 92, N-[[2-[(2R,6S)-2,6-dimethyl-4-morpholinyl]-5-(2-methyl-4-pyridinyl)-4-thiazolyl]methyl]-2-fluoro-benzamide]
4 | 299 | 2.09 | Cc1cc(-c2sc(N3C[C@@H](C)O[C@@H](C)C3)nc2CNC(=O)C2CCC2)c(C)cn1 [Compound 95, N-[[2-[(2R,6S)-2,6-dimethyl-4-morpholinyl]-5-(2,5-dimethyl-4-pyridinyl)-4-thiazolyl]methyl]-cyclobutanecarboxamide]
5 |  | 6.61 | Cc1nocc1C(=O)NCc1nc(N2C[C@@H](C)O[C@@H](C)C2)sc1-c1ccncc1 [Compound 101, N-[[2-[(2R,6S)-2,6-dimethyl-4-morpholinyl]-5-(4-pyridinyl)-4-thiazolyl]methyl]-3-methyl-4-isoxazolecarboxamide]
6 | 923 | 0.0617 | Cc1cc(-c2sc(N3C[C@@H](C)O[C@@H](C)C3)nc2CNC(=O)CC2CC2)cc(C2CC2)n1 [Compound 104, N-[[5-(2-cyclopropy1-6-methyl-4-pyridinyl)-2-[(2R,6S)-2,6-dimethyl-4-morpholinyl]-4-thiazolyl]methyl]-cyclopropaneacetamide]
7 | 895 | 0.288 | Cc1cc(-c2sc(N3C[C@@H](C)O[C@@H](C)C3)nc2CNC(=O)c2cc(C)on2)cc(C2CC2)n1 [Compound 105, N-[[5-(2-cyclopropy1-6-methyl-4-pyridinyl)-2-[(2R,6S)-2,6-dimethyl-4-morpholinyl]-4-thiazolyl]methyl]-5-methyl-3-isoxazolecarboxamide]
8 | 650 | 0.0813 | Cc1cc(-c2sc(N3C[C@@H](C)O[C@@H](C)C3)nc2CNC(=O)c2conc2C)cc(C2CC2)n1 [Compound 106, N-[[5-(2-cyclopropy1-6-methyl-4-pyridinyl)-2-[(2R,6S)-2,6-dimethyl-4-morpholinyl]-4-thiazolyl]methyl]-3-methyl-4-isoxazolecarboxamide]
9 | 780 | 0.0269 | Cc1cc(-c2sc(N3C[C@@H](C)O[C@@H](C)C3)nc2CNC(=O)c2ccc(F)cc2C)cc(C2CC2)n1 [Compound 107, N-[[5-(2-cyclopropy1-6-methyl-4-pyridinyl)-2-[(2R,6S)-2,6-dimethyl-4-morpholinyl]-4-thiazolyl]methyl]-4-fluoro-2-methyl-benzamide]
10 | 764 | 0.0724 | Cc1cc(-c2sc(N3C[C@@H](C)O[C@@H](C)C3)nc2CNC(=O)C(C)C)cc(C2CC2)n1 [Compound 108, N-[[5-(2-cyclopropy1-6-methyl-4-pyridinyl)-2-[(2R,6S)-2,6-dimethyl-4-morpholinyl]-4-thiazolyl]methyl]-2-methyl-propanamide]
11 | 826 | 0.224 | Cc1cc(-c2sc(N3C[C@@H](C)O[C@@H](C)C3)nc2CNC(=O)C2CC2)cc(C2CC2)n1 [Compound 109, N-[[5-(2-cyclopropy1-6-methyl-4-pyridinyl)-2-[(2R,6S)-2,6-dimethyl-4-morpholinyl]-4-thiazolyl]methyl]-cyclopropanecarboxamide]
12 | 957 | 0.0123 | Cc1cc(-c2sc(N3C[C@@H](C)O[C@@H](C)C3)nc2CNC(=O)CC(C)C)cc(C2CC2)n1 [Compound 110, N-[[5-(2-cyclopropy1-6-methyl-4-pyridinyl)-2-[(2R,6S)-2,6-dimethyl-4-morpholinyl]-4-thiazolyl]methyl]-3-methyl-butanamide]
13 | 230 | 9.33 | CC(C)C(=O)NCc1nc(N2CCOCC2)sc1-c1ccncc1 [Compound 115, 2-methyl-N-[[2-(4-morpholinyl)-5-(4-pyridinyl)-4-thiazolyl]methyl]-propanamide]
14 | 356 |  | Cc1ccc(-c2sc(N3C[C@@H](C)O[C@@H](C)C3)nc2CNC(=O)c2ccccc2F)cn1 [Compound 124, N-[[2-[(2R,6S)-2,6-dimethyl-4-morpholinyl]-5-(6-methyl-3-pyridinyl)-4-thiazolyl]methyl]-2-fluoro-benzamide]
15 |  | 0.692 | Cc1cc(-c2sc(N3C[C@@H](C)O[C@@H](C)C3)nc2CNC(=O)c2cc(C3CC3)on2)cc(C)n1 [Compound 127, 5-cyclopropyl-N-[[2-[(2R,6S)-2,6-dimethyl-4-morpholinyl]-5-(2,6-dimethyl-4-pyridinyl)-4-thiazolyl]methyl]-3-isoxazolecarboxamide]
16 |  | 0.0513 | Cc1cc(-c2sc(N3C[C@@H](C)O[C@@H](C)C3)nc2CNC(=O)CCC(F)(F)F)cc(C)n1 [Compound 128, N-[[2-[(2R,6S)-2,6-dimethyl-4-morpholinyl]-5-(2,6-dimethyl-4-pyridinyl)-4-thiazolyl]methyl]-4,4,4-trifluoro-butanamide]
17 |  | 0.912 | Cc1cc(-c2sc(N3C[C@@H](C)O[C@@H](C)C3)nc2CNC(=O)c2cc(C)nn2C(C)(C)C)cc(C)n1 [Compound 129, 1-(1,1-dimethylethyl)-N-[[2-[(2R,6S)-2,6-dimethyl-4-morpholinyl]-5-(2,6-dimethyl-4-pyridinyl)-4-thiazolyl]methyl]-3-methyl-1H-pyrazole-5-carboxamide]
18 |  | 0.309 | Cc1cc(-c2sc(N3C[C@@H](C)O[C@@H](C)C3)nc2CNC(=O)c2noc3ccccc23)cc(C)n1 [Compound 130, N-[[2-[(2R,6S)-2,6-dimethyl-4-morpholinyl]-5-(2,6-dimethyl-4-pyridinyl)-4-thiazolyl]methyl]-1,2-benzisoxazole-3-carboxamide]
19 | 462 |  | Cc1cc(-c2sc(N3C[C@@H](C)O[C@@H](C)C3)nc2CNC(=O)c2cc(C)n(C)n2)cc(C)n1 [Compound 131, N-[[2-[(2R,6S)-2,6-dimethyl-4-morpholinyl]-5-(2,6-dimethyl-4-pyridinyl)-4-thiazolyl]methyl]-1,5-dimethyl-1H-pyrazole-3-carboxamide]
20 |  | 0.537 | Cc1cc(-c2sc(N3C[C@@H](C)O[C@@H](C)C3)nc2CNC(=O)c2cc(C(C)C)on2)cc(C)n1 [Compound 135, N-[[2-[(2R,6S)-2,6-dimethyl-4-morpholinyl]-5-(2,6-dimethyl-4-pyridinyl)-4-thiazolyl]methyl]-5-(1-methylethyl)-3-isoxazolecarboxamide]
21 |  | 1.95 | Cc1cc(-c2sc(N3C[C@@H](C)O[C@@H](C)C3)nc2CNC(=O)c2cc(C)nn2C)cc(C)n1 [Compound 136, N-[[2-[(2R,6S)-2,6-dimethyl-4-morpholinyl]-5-(2,6-dimethyl-4-pyridinyl)-4-thiazolyl]methyl]-1,3-dimethyl-1H-pyrazole-5-carboxamide]
22 | 837 | 4.68 | Cc1cc(-c2sc(N3C[C@@H](C)O[C@@H](C)C3)nc2CNC(=O)c2cnccn2)cc(C)n1 [Compound 138, N-[[2-[(2R,6S)-2,6-dimethyl-4-morpholinyl]-5-(2,6-dimethyl-4-pyridinyl)-4-thiazolyl]methyl]-2-pyrazinecarboxamide]
23 | 699 | 0.617 | Cc1cc(-c2sc(N3C[C@@H](C)O[C@@H](C)C3)nc2CNC(=O)c2cc(C)n(C(C)(C)C)n2)cc(C)n1 [Compound 139, 1-(1,1-dimethylethyl)-N-[[2-[(2R,6S)-2,6-dimethyl-4-morpholinyl]-5-(2,6-dimethyl-4-pyridinyl)-4-thiazolyl]methyl]-5-methyl-1H-pyrazole-3-carboxamide]
24 | 451 | 1.2 | COc1cccc(C(=O)NCc2nc(N3C[C@@H](C)O[C@@H](C)C3)sc2-c2cc(C)nc(C)c2)n1 [Compound 140, N-[[2-[(2R,6S)-2,6-dimethyl-4-morpholinyl]-5-(2,6-dimethyl-4-pyridinyl)-4-thiazolyl]methyl]-6-methoxy-2-pyridinecarboxamide]
